In assay [1] the target is Protein mono-ADP-ribosyltransferase PARP10 (Homo sapiens, UniProt Q53GL7, L926G). Description: Inhibition of PARP-10 L926G mutant (unknown origin) mediated ADP-ribosylation of SRPK2 by fluorescence analysis using 3 uM SRPK2 as a substrate.
The target of assay [2] is Poly [ADP-ribose] polymerase 1 (Homo sapiens, UniProt P09874). Nature of the assay: Inhibition of PARP1 (unknown origin) by fluorescence analysis.
Assay [3] concerns the target T1, Protein mono-ADP-ribosyltransferase PARP10 (Homo sapiens, UniProt Q53GL7).
T1 sequence (Q53GL7 whole entry): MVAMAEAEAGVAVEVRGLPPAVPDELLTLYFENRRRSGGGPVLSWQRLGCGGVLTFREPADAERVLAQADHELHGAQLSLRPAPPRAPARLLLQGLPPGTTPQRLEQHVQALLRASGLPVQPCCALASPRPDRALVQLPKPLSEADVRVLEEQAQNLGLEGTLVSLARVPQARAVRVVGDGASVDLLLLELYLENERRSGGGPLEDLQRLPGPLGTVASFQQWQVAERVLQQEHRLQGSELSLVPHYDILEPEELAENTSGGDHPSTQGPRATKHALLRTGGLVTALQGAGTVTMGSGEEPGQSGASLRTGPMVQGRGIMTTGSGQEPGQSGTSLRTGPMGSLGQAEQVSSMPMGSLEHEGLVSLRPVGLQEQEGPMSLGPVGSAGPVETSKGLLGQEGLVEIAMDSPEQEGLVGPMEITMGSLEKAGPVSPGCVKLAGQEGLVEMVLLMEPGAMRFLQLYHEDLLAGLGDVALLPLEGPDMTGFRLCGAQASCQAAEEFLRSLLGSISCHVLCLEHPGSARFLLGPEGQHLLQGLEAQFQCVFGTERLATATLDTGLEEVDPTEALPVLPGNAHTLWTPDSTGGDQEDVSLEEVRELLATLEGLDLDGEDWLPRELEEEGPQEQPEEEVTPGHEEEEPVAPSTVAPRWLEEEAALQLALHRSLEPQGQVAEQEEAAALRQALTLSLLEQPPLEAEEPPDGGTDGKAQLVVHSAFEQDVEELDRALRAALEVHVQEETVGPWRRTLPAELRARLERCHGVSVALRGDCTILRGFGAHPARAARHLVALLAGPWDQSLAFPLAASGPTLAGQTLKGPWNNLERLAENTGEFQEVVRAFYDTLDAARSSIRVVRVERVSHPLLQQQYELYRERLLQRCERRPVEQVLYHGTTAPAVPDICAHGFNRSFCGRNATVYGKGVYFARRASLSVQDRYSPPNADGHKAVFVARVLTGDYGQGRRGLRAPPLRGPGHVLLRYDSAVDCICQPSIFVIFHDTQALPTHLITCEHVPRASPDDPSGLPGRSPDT
Nature of the assay: Inhibition of PARP-10 (unknown origin) mediated ADP-ribosylation of SRPK2 by fluorescence analysis using 3 uM SRPK2 as a substrate.

Sequence of Protein mono-ADP-ribosyltransferase PARP10 (Homo sapiens, UniProt Q53GL7, L926G) (Q53GL7 whole entry L926G): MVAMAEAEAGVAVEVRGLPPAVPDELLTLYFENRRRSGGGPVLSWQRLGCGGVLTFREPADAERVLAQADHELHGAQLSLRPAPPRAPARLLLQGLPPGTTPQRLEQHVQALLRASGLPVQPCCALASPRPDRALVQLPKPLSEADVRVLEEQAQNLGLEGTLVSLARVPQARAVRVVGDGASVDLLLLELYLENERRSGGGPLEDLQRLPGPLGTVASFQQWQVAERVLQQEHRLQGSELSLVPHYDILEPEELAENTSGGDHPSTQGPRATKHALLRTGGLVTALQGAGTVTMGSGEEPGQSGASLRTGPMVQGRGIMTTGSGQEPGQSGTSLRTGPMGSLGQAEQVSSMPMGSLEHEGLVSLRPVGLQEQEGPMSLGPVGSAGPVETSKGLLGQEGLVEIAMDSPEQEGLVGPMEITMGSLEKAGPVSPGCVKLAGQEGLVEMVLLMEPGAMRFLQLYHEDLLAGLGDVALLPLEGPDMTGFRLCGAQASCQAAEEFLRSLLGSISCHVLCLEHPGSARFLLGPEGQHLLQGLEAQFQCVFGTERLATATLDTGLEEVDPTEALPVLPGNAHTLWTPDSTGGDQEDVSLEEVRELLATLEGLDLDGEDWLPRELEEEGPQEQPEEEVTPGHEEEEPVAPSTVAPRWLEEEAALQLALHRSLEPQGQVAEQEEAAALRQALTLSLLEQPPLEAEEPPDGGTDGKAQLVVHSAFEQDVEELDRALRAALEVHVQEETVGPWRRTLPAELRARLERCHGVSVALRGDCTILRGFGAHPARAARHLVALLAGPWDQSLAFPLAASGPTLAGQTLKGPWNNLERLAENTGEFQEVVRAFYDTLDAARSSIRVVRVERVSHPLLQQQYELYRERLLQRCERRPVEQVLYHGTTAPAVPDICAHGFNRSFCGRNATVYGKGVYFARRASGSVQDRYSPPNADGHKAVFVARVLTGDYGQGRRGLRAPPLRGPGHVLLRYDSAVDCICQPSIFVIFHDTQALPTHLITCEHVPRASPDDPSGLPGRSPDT
Sequence of Poly [ADP-ribose] polymerase 1 (P09874 whole entry): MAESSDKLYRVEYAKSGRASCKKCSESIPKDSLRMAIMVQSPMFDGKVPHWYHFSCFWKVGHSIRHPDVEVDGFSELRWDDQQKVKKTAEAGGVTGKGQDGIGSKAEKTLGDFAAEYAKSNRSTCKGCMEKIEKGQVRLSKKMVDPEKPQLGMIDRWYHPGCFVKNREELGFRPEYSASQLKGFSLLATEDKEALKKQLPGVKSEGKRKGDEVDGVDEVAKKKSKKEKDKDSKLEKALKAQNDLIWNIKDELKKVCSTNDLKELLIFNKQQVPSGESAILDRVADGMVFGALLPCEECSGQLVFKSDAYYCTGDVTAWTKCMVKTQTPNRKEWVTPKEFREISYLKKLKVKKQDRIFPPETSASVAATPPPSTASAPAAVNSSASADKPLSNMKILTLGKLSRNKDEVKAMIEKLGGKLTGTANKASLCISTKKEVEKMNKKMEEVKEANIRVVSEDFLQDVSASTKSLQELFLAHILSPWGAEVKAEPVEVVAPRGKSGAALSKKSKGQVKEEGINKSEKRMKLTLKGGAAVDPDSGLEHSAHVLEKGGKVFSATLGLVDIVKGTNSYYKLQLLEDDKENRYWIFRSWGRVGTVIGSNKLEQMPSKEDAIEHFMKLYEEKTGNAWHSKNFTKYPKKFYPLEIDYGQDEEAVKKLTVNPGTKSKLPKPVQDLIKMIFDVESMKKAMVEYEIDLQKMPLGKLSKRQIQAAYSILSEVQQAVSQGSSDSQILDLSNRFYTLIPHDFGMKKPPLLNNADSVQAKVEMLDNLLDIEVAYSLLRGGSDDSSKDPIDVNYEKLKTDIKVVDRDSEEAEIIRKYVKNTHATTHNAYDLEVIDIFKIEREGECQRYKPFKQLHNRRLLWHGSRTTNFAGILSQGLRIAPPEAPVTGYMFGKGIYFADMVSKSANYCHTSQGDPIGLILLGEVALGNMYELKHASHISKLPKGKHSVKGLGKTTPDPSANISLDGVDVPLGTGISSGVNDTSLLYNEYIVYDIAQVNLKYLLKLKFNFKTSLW

By IC50 is commonly meant the midpoint of a concentration-inhibition curve. As to `O=C1NCCc2ccc(Cl)cc21`, the results for the 50% inhibitory concentration (IC50) in assay [1], in assay [2] and in assay [3] were 16.2 µM, 100 µM and above 100 µM, respectively.

Consider `O=C1NCCc2ccc(Br)cc21`, for which the IC50 is 8.6 µM in assay [1], above 100 µM in assay [2] and above 100 µM in assay [3].

For the compound `Cc1ccc2c(c1)C(=O)NCC2`, the values for the half-maximal inhibitory concentration (IC50) in assay [1], in assay [2] and in assay [3] were 112 µM, above 100 µM and above 100 µM, respectively.

Regarding `O=C1NCCc2ccc(C(F)(F)F)cc21`, the IC50 in assay [1] was 65.5 µM; in assay [2] it was above 100 µM; in assay [3], above 100 µM.

As to `O=C1NCCc2ccc(O)cc21`, the IC50 in assay [1] was above 30 µM.

For the compound `COc1ccc2c(c1)C(=O)NCC2`, the IC50 in assay [1] was 172 µM; in assay [2], above 100 µM; in assay [3] it was above 100 µM.

The values are drawn from ChEMBL document CHEMBL3627698, “Selective inhibition of PARP10 using a chemical genetics strategy” (Bioorg Med Chem Lett, 2015).
